According to US20230027198A1 (The Rockefeller University, priority 2019, published 2023):

Biological target: T1, ENL YEATS domain (6×HIS ENL YEATS Domain) binding to H3K9cr peptide (Homo sapiens, UniProt Q03111)
T1 construct: aa1-150; EpiCypher, 15-0069; purchased EpiCypher 15-0069
T1 sequence (Q03111 1-150): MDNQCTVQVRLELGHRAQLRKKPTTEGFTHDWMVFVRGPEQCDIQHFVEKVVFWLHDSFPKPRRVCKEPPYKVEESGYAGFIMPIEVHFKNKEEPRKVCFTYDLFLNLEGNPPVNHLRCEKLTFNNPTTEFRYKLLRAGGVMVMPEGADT
Experiment: TR-FRET ENL Screening Assay, FRET Assay Protocol 1
Conditions: H3K9cr peptide (aa1-20)
Method: Compounds of the invention were dissolved in DMSO at a concentration of 3 mM with subsequent dilutions in assay buffer (50 mM HEPES PH7.0, 150 mM NaCl, 0.05% BSA, 0.2% Pluronic F-127) such that the assay contained 1% DMSO. […] Low control (LC) wells received 5 uL of assay buffer instead of ENL protein. […] Compound concentration response curves were performed in duplicate over the concentration range of 0.15 nM-30 uM. The response at each compound concentration minus the LC value was converted to percent inhibition of the vehicle control group response (HC-LC). The relationship between the % inhibition and the compound concentration was analyzed using a four parameter logistic equation to estimate lower and upper asymptotes, the compound concentration producing 50% inhibition (IC50 value) and the slope at the mid-point location.

Row | Compound | IC50 [µM]
1 | Cc1noc2ccc(C(=O)Nc3cc4[nH]c(CN5CCC[C@@H]5C)cc4cn3)cc12 [Example 2, 3-methyl-N-(2-[[(2S)-2-methylpyrrolidin-1-yl]methyl]-1H-pyrrolo[3,2-c]pyridin-6-yl)-1,2-benzoxazole-5-carboxamide] | 0.465
2 | Cc1nc2cc(C(=O)Nc3cc4[nH]c(CN5CCC[C@@H]5C)cc4cn3)ccc2o1 [Example 3, 2-methyl-N-(2-[[(2S)-2-methylpyrrolidin-1-yl]methyl]-1H-pyrrolo[3,2-c]pyridin-6-yl)-1,3-benzoxazole-5-carboxamide] | 0.884
3 | Cc1nc2ccc(C(=O)Nc3cc4[nH]c(CN5CCC[C@@H]5C)cc4cn3)cc2o1 [Example 4] | 0.569
4 | Cc1c2ccc(C(=O)Nc3cc4[nH]c(CN5CCC[C@@H]5C)cc4cn3)cc2nn1C [Example 8] | 0.245
5 | COCC1CCN(Cc2cc3cnc(NC(=O)c4ccc5c(cnn5C)c4)cc3[nH]2)C1 (stereo not shown) [Example 9] | 0.283
6 | CC(c1ccc(C(=O)Nc2cc3[nH]c(CN4CCC[C@@H]4C)cc3cn2)cc1)c1ccccn1 (stereo partly drawn) [Example 10, N-(2-[[(2S)-2-methylpyrrolidin-1-yl]methyl]-1H-pyrrolo[3,2-c]pyridin-6-yl)-4-[1-(pyridin-2-yl)ethyl]benzamide] | 1.78
7 | Cc1cnc(-c2ccc(C(=O)Nc3cc4[nH]c(CN5CCC[C@@H]5C)cc4cn3)c(F)c2)nc1 [Example 14, 2-fluoro-4-(5-methylpyrimidin-2-yl)-N-(2-[[(2S)-2-methylpyrrolidin-1-yl]methyl]-1H-pyrrolo[3,2-c]pyridin-6-yl)benzamide] | 1.42
8 | C[C@H]1CCCN1Cc1cc2cnc(NC(=O)c3ccc4ncccc4c3)cc2[nH]1 [Example 15] | 0.263
9 | C[C@H]1CCCN1Cc1cc2cnc(NC(=O)c3ccc4c(c3)OCC(=O)N4)cc2[nH]1 [Example 16, N-(2-[[(2S)-2-methylpyrrolidin-1-yl]methyl]-1H-pyrrolo[3,2-c]pyridin-6-yl)-3-oxo-2,4-dihydro-1,4-benzoxazine-7-carboxamide] | 1.16
10 | C[C@H]1CCCN1Cc1cc2cnc(NC(=O)c3ccc4c(c3)OCC(=O)N4C)cc2[nH]1 [Example 17, 4-methyl-N-(2-[[(2S)-2-methylpyrrolidin-1-yl]methyl]-1H-pyrrolo[3,2-c]pyridin-6-yl)-3-oxo-2H-1,4-benzoxazine-7-carboxamide] | 0.441
11 | C[C@H]1CCCN1Cc1cc2cnc(NC(=O)c3ccc(-c4cnn(CCO)c4)cc3)cc2[nH]1 [Example 20, 4-[1-(2-hydroxyethyl)pyrazol-4-yl]-N-(2-[[(2S)-2-methylpyrrolidin-1-yl]methyl]-1H-pyrrolo[3,2-c]pyridin-6-yl)benzamide] | 0.166
12 | C[C@H]1CCCN1Cc1cc2cnc(NC(=O)c3ccc4cc[nH]c(=O)c4c3)cc2[nH]1 [Example 25] | 0.395
13 | C[C@H]1CCCN1Cc1cc2cnc(NC(=O)c3ccc4c(c3)CNC(=O)C4)cc2[nH]1 [Example 26] | 0.435
14 | COCC#CCn1ncc2cc(C(=O)Nc3cc4[nH]c(CN5CCC[C@@H]5C)cc4cn3)ccc21 [Example 27, 1-(4-methoxybut-2-yn-1-yl)-N-(2-[[(2S)-2-methylpyrrolidin-1-yl]methyl]-1H-pyrrolo[3,2-c]pyridin-6-yl)indazole-5-carboxamide] | 0.258
15 | CC(c1ccncc1)c1ccc(C(=O)Nc2cc3[nH]c(CN4CCC[C@@H]4C)cc3cn2)cc1 (stereo partly drawn) [Example 29, N-(2-[[(2S)-2-methylpyrrolidin-1-yl]methyl]-1H-pyrrolo[3,2-c]pyridin-6-yl)-4-[1-(pyridin-4-yl)ethyl]benzamide] | 0.527
16 | C[C@H]1CCCN1Cc1cc2cnc(NC(=O)c3ccc(-c4ccnn4C)cc3F)cc2[nH]1 [Example 31] | 0.864
17 | C[C@H]1CCCN1Cc1cc2cnc(NC(=O)c3ccc(-c4cn(C)nn4)cc3F)cc2[nH]1 [Example 33] | 0.418
18 | Cc1ccc(-c2ccc(C(=O)Nc3cc4[nH]c(CN5CCC[C@@H]5C)cc4cn3)c(F)c2)nn1 [Example 35] | 0.657
19 | Cc1cnnc(-c2ccc(C(=O)Nc3cc4[nH]c(CN5CCC[C@@H]5C)cc4cn3)c(F)c2)c1 [Example 36] | 0.669

Row | Compound | IC50 [µM]
20 | C[C@H]1CCCN1Cc1cc2cnc(NC(=O)c3ccc4c(cnn4-c4ccncc4)c3)cc2[nH]1 [Example 37, N-(2-[[(2S)-2-methylpyrrolidin-1-yl]methyl]-1H-pyrrolo[3,2-c]pyridin-6-yl)-1-(pyridin-4-yl) indazole-5-carboxamide] | 0.239
21 | C[C@H]1CCCN1Cc1cc2cnc(NC(=O)c3ccc4nccnc4c3)cc2[nH]1 [Example 38] | 0.489
22 | C[C@H]1CCCN1Cc1cc2cnc(NC(=O)c3ccc4nnccc4c3)cc2[nH]1 [Example 39] | 0.368
23 | C[C@H]1CCCN1Cc1cc2cnc(NC(=O)c3ccc4c(c3)CCCN4C)cc2[nH]1 [Example 40, 1-methyl-N-(2-[[(2S)-2-methylpyrrolidin-1-yl]methyl]-1H-pyrrolo[3,2-c]pyridin-6-yl)-3,4-dihydro-2H-quinoline-6-carboxamide] | 2.52
24 | C[C@H]1CCCN1Cc1cc2ncc(NC(=O)c3ccc(-c4cc[nH]n4)cc3F)cc2[nH]1 [Example 41] | 0.41
25 | C[C@H]1CCCN1Cc1cc2cnc(NC(=O)c3ccc(-c4cc[nH]n4)cc3F)cc2[nH]1 [Example 43, 2-fluoro-N-(2-[[(2S)-2-methylpyrrolidin-1-yl]methyl]-1H-pyrrolo[3,2-c]pyridin-6-yl)-4-(1H-pyrazol-3-yl)benzamide] | 0.699
26 | COc1cc(C(=O)Nc2cc3[nH]c(CN4CCC[C@@H]4C)cc3cn2)c(F)cc1-c1ccn[nH]1 [Example 44] | 0.76
27 | C[C@@H]1CCN1Cc1cc2cnc(NC(=O)c3ccc4c(cnn4C)c3)cc2[nH]1 [Example 45, 1-methyl-N-(2-[[(2R)-2-methylazetidin-1-yl]methyl]-1H-pyrrolo[3,2-c]pyridin-6-yl)indazole-5-carboxamide] | 2.18
28 | C[C@H]1CCCN1Cc1cc2cnc(NC(=O)c3ccc(-c4cnn(C5CC5)c4)cc3)cc2[nH]1 [Example 49] | 0.151
29 | C[C@H]1CCCN1Cc1cc2cnc(NC(=O)c3ccc4onc(C5CC5)c4c3)cc2[nH]1 [Example 53, 3-cyclopropyl-N-(2-[[(2S)-2-methylpyrrolidin-1-yl]methyl]-1H-pyrrolo[3,2-c]pyridin-6-yl)-1,2-benzoxazole-5-carboxamide] | 0.417
30 | C[C@H]1CCCN1Cc1cc2cnc(NC(=O)c3ccc(-n4ccnc4)cc3)cc2[nH]1 [Example 54] | 0.212
31 | C[C@H]1CCCN1Cc1cc2cnc(NC(=O)c3ccc4nc(N)ccc4c3)cc2[nH]1 [Example 58] | 0.295
32 | C[C@H]1CCCN1Cc1cc2cnc(NC(=O)c3ccc4nc(N)ncc4c3)cc2[nH]1 [Example 59] | 0.513
33 | C[C@H]1CCCN1Cc1cc2cnc(NC(=O)c3ccc4c(=O)[nH]ccc4c3)cc2[nH]1 [Example 61] | 0.325
34 | C[C@H]1CCCN1Cc1cc2cnc(NC(=O)c3nc4ccc(O)cc4[nH]3)cc2[nH]1 [Example 63] | 1.96
35 | C[C@H]1CCCN1Cc1cc2cnc(NC(=O)c3nc4cc(N)ccc4[nH]3)cc2[nH]1 [Example 64] | 1.35
36 | C[C@H]1CCCN1Cc1cc2cnc(NC(=O)c3ccc4cnccc4c3)cc2[nH]1 [Example 65] | 0.137
37 | Cc1c[nH]c2cc(C(=O)Nc3cc4[nH]c(CN5CCC[C@@H]5C)cc4cn3)ccc12 [Example 68] | 0.622
